Values joined by “and” are separate entries in the source; they are usually repeats but may differ in a detail not shown here. Equal entries are not always repeated.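 Five compound concentrations were applied to cells in 96-well plates for 48 hours; endpoints were derived by simple linear interpolation of the resulting dose-response curve. GI50 is the concentration that inhibits growth by half. TGI is the concentration that stops growth completely.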
Legend:
Test in all cases: inhibition of tumour cell growth, NCI panel, 48 h
[1] = test system: UACC-62 melanoma
[2] = test system: IGROV1 ovarian
[3] = test system: OVCAR-3 ovarian
[4] = test system: SF-268 CNS
[5] = test system: U251 CNS
[6] = test system: MOLT-4 leukemia
[7] = test system: SNB-19 CNS
[8] = test system: 786-0 renal
[9] = test system: A549 NSCLC
[10] = test system: NCI-H522 lung

SMILES | TGI [1] [µM] | TGI [2] [µM] | TGI [3] [µM] | TGI [4] [µM] | TGI [5] [µM] | TGI [6] [µM] | TGI [7] | TGI [8] [µM] | TGI [9] [µM] | TGI [10] [µM] | GI50 [1] [nM] | GI50 [2] | GI50 [3] [µM] | GI50 [4] [nM] | GI50 [5] | GI50 [6] | GI50 [7] | GI50 [8] [nM] | GI50 [9] [µM] | GI50 [10] [nM]
COc1ccc(Cc2coc3ccccc3c2=O)cc1OC | > 100 | > 100 | > 100 | > 100 | > 100 | > 100 | > 100 µM | > 100 | > 100 | > 100 | – | – | – | – | – | – | – | – | – | –
O=C([CH-]C(=O)c1ccccc1)c1ccccc1.[CH-]1CCCCC1.[CH-]1CCCCC1.[CH-]1CCCCC1.[Sn+4] | 15.6 | 33.4 | 19.8 | 24.1 | 20.8 | 7.47 | 18.4 µM | 15.1 | 38.6 | 5.26 | 4340 | 11800 nM | 5.89 | 7640 | 6860 nM | 2410 nM | 5430 nM | 4250 | 15.5 | 2030
CN(C)CCNC(=O)c1cccc2cc3c(Cl)cccc3nc12 | 3.82 | 6.96 | 4.9 | – | 6.3 | 0.556 | 7.32 µM | > 20.2 | 9.35 | > 100 | – | – | – | – | – | – | – | – | – | –
O=C(/C=C/c1ccccc1F)c1ccc(Cl)c(Cl)c1 | > 100 | > 72.6 | > 71.6 | > 100 | – | 77 | > 100 µM | 31.4 | > 100 | 61.2 | – | – | – | – | – | – | – | – | – | –
O=C1CC(c2cccc(F)c2)Nc2cc3c(cc21)OCO3 (centres undefined) | < 0.01 | – | > 100 | > 100 | > 100 | < 0.01 | 3.12 µM | > 100 | > 100 | 0.0602 | < 10 | – | < 0.01 | 1530 | < 10 nM | – | – | < 10 | < 0.01 | –
CC1=C(c2ccccc2)C(O)(c2ccccc2)C(C)C1=O (centres undefined) | > 100 | > 100 | > 100 | > 100 | > 100 | > 100 | > 100 µM | > 100 | > 100 | – | 9970 | 10300 nM | 16.5 | 27400 | 22100 nM | 21600 nM | 35500 nM | 18900 | 32.5 | –
O=[N+]([O-])C=C(c1ccc(Cl)cc1)c1ccc(Cl)cc1 | – | 48.1 | – | – | 29.8 | 56.9 | 36.5 µM | 30.6 | 46.7 | 28.8 | – | – | – | – | – | – | – | – | – | –
Cc1ccc(/C=N/Nc2nc(Nc3ccccc3)nc(-n3nc(C)cc3C)n2)cc1 | 24.2 | 44.8 | 43.6 | > 100 | > 100 | 8.53 | – | 36.9 | 35.7 | 6.48 | 4440 | 4990 nM | 3.2 | 4420 | 4880 nM | 2400 nM | – | 3700 | 4.19 | 2670
COc1ccc2c(c1)c(-c1nc(-c3c[nH]c4ccncc34)cs1)cn2C | 3.35 | 3.54 | 3.34 | 3.37 | 3.3 | – | 3.36 µM | 3.24 | 3.46 | 3.25 | 1820 | 1910 nM | 1.88 | 1770 | 1870 nM | – | 1850 nM | 1700 | 1.87 | 1650
NC(=O)c1cc([N+](=O)[O-])c(Cl)c([N+](=O)[O-])c1Cl | 2.85 | 7.73 | 2.35 | 3.07 | 2.49 | – | 5.93 µM | 2.87 | 3.8 | 0.319 | 1390 | 625 nM | 1.14 | 1640 | 1200 nM | – | 2290 nM | 1440 | 1.88 | 162
CN(c1ccc(C(=O)c2ccc(N(C)S(C)(=O)=O)cc2)cc1)S(C)(=O)=O | > 100 | – | – | > 100 | > 100 | > 100 | > 100 µM | > 100 | > 100 | > 100 | – | – | – | – | – | – | – | – | – | –
CCCCCCCCCCCCCC[N+](C)(C)CCCCCCCCCCCCCC | 5.7 | – | 20.5 | 8.38 | – | 6.44 | 10 µM | 4.92 | – | 5.17 | 1890 | – | 3.58 | 2920 | – | 2410 nM | 2380 nM | 2020 | – | 1930
CCc1cccc(C)c1NC(=O)C(=O)CC(=O)c1ccc(Cl)s1 | > 100 | > 100 | – | > 100 | > 100 | > 100 | > 100 µM | > 100 | > 100 | – | – | – | – | – | – | – | – | – | – | –
COc1ccc(-c2nc(-c3ccc(C)cc3)cn3ccnc23)cc1 | > 50 | > 50 | > 50 | > 50 | > 50 | > 50 | > 50 µM | 45.6 | > 50 | – | 4390 | 2430 nM | 4.46 | 3060 | 3420 nM | 22300 nM | 13800 nM | 8600 | 3.97 | –
CC1=C(/C=C/C(C)=C/C2CC(N(C)C)=CC(=O)O2)C(C)(C)CCC1 (centres undefined) | 27 | 29 | 23.7 | 40.6 | 28.7 | 19.9 | 28.6 µM | 29.2 | 22.3 | – | – | – | – | – | – | – | – | – | – | –
OC(COC(c1ccccc1)(c1ccccc1)c1ccccc1)C(O)CC1SCCS1 (centres undefined) | 36 | 30.5 | 62.9 | 50.9 | 62.4 | 68.7 | 54.9 µM | 39.7 | – | – | – | – | – | – | – | – | – | – | – | –
CCCCCCCCCCCCCCCCCCn1cc[n+](C)c1 | 2.3 | – | 1.27 | – | 1.51 | – | 3.57 µM and 2.42 µM | 3.32 | – | – | 1040 | 253 nM and 516 nM | 0.366 | – | 372 nM and 397 nM | 189 nM and 650 nM | 1220 nM and 1180 nM | 952 | – | –

— PubChem BioAssay (NCI)
